Assay results as given in patent US20230274799A1, “SYSTEMS AND METHODS FOR PATIENT STRATIFICATION AND IDENTIFICATION OF POTENTIAL BIOMARKERS” (Berg LLC, priority 2016, published 2023).
“And” between values parts separate entries of the source, which are not always exact repeats. Equal entries are not always repeated.

Legend:
Format in all cases: in vivo, human
[1] = Phase I dose-escalation trial, dose limiting toxicities of Coenzyme Q10 monotherapy (Arm 1)
From the text: (§1) The clinical trial is a multicenter, open-label, non-randomized, dose-escalation study to examine the dose limiting toxicities (DLT) of Coenzyme Q10 administered as a 144-hour continuous intravenous (IV) infusion as monotherapy (treatment Arm 1) and in combination with chemotherapy (treatment Arm 2) in patients with solid tumors. A broad range of solid tumors has been evaluated, including prostate, colon, breast, lung and pancreatic tumors, as shown in Tables 1 and 2 below. Coenzyme Q10 was administered in three consecutive 48 hour doses or two consecutive 72 hour doses, depending on the dose level. Three standard weekly chemotherapy regimens of gemcitabine, 5-fluorouracil, or docetaxel were evaluated in combination with Coenzyme Q10. Eligible patients are 18 years of age or older, afflicted with solid tumors, and relapsed/refractory to standard therapy. 85 patients have been enrolled in the trial. The monotherapy arm received Coenzyme Q10 for 6 days in continuous infusion in 28 day cycles, and the combination arms (gemcitabine, 5-fluorouracil, or docetaxel) were primed for 3 weeks with Coenzyme Q10 before initiation of standard chemotherapy, followed by weekly dosing in a 6 week cycle.
The study is a standard 3+3 dose escalation design with the dose escalated in successive cohorts of 3 to 6 patients each. Toxicity at each dose level is graded according to National Cancer Institute Common Terminology Criteria for Adverse Events (CTCAE v4.02). Safety oversight is provided by the Cohort Review Committee (CRC). If none of the 3 patients in a cohort experiences a DLT during Cycle 1, then 3 new patients may be entered at the next higher dose level following CRC review of safety and PK data from lower cohorts. The clinical trial is described in greater detail in WO2015/035094, which is incorporated by reference herein in its entirety.
DLTs were reported at 171 mg/kg in the Coenzyme Q10 monotherapy arm and at 137 mg/kg in the gemcitabine arm (maximum administered dose) and were coagulopathy-related. 3 DLTs were reported during the time period covered by Example 1. […] The event resolved in 2 days after administration of Vitamin K and fresh frozen plasma (FFP). Three additional patients were enrolled at this dose level with no additional DLTs reported. […] According to trial design, patients were being enrolled into the next lowest dose level (110 mg/kg).
Table 4. Dose limiting toxicities for Coenzyme Q10 monotherapy. The number of patients enrolled at each dose level (DL) is shown in parentheses. DL4 and DL5 were administered in two consecutive 72 hour IV infusions. All other dose levels were administered by three consecutive 48 hour IV infusions.

[2] = Phase I dose-escalation trial, dose limiting toxicities of Coenzyme Q10 in combination with chemotherapy (Arm 2)
From the text: as §1
The study is a standard 3+3 dose escalation design with the dose escalated in successive cohorts of 3 to 6 patients each. […]

[3] = Pharmacokinetics of Coenzyme Q10 in plasma during and after 144-hour continuous IV infusion; design: Coenzyme Q10 concentration in plasma, Mean ± SD: unit not given here
Procedure: Pharmacokinetics of Coenzyme Q10 was measured in the patients at time zero and at several time points during and after the 144-hour continuous intravenous (IV) infusion with Coenzyme Q10.

COC1=C(OC)C(=O)C(C/C=C(\C)CC/C=C(\C)CC/C=C(\C)CC/C=C(\C)CC/C=C(\C)CC/C=C(\C)CC/C=C(\C)CC/C=C(\C)CC/C=C(\C)CCC=C(C)C)=C(C)C1=O [Coenzyme Q10]
Time to resolution of DLT event (grade 3 PTT abnormality) ([1]; Mono Dose Level 5 (171 mg/kg), after administration of Vitamin K and fresh frozen plasma): 2 days | Dose Limiting Toxicity ([1]; monotherapy DL1 - 66 mg/kg (9 enrolled), three consecutive 48 hour IV infusions, cell wraps r7-r9: Grade 3 Elevated Liver Function Test*, *readjudicated to unlikely related to protocol therapy): Grade 3 Elevated | Dose Limiting Toxicity ([1]; monotherapy DL2 - 88 mg/kg (4 enrolled), three consecutive 48 hour IV infusions): None | Dose Limiting Toxicity ([1]; monotherapy DL3 - 110 mg/kg (5 enrolled), three consecutive 48 hour IV infusions): None | Dose Limiting Toxicity ([1]; monotherapy DL4 - 137 mg/kg (4 enrolled), two consecutive 72 hour IV infusions): None | Dose Limiting Toxicity ([1]; monotherapy DL5 - 171 mg/kg (8 enrolled), two consecutive 72 hour IV infusions, cell wraps r20-r21: 1 DLT: Grade 3 PTT elevation): grade 3 partial thromboplastin time (PTT) abnormality and 1 DLT: Grade 3 | Number of DLTs reported ([1]; whole trial (mono and combination arms), time period covered by Example 1): 3 | Dose Limiting Toxicity ([2]; DL4 - 110 mg/kg with Gemcitabine 1,000 mg/m^2 (6 enrolled), two consecutive 72 hour infusions, cell wraps r34-r38: None to Date- need 3 more evaluable patients to determine MTD): None to Date- | Dose Limiting Toxicity ([2]; in vivo): None | Coenzyme Q10 concentration in plasma, Mean ± SD ([3]; 220 mg/kg/week, Arm 2, n = 9 (footnote c), time 96 hr): 348 ± 225^c | Coenzyme Q10 concentration in plasma, Mean ± SD ([3]; 220 mg/kg/week, Arm 2, n = 9 (footnote c), time 148 hr): 250 ± 251^c | Coenzyme Q10 concentration in plasma, Mean ± SD ([3]; 220 mg/kg/week, Arm 2, n = 11 (footnote b), time 4 hr): 158 ± 57^b | Coenzyme Q10 concentration in plasma, Mean ± SD ([3]; 220 mg/kg/week, Arm 2, n = 11 (footnote b), time 140 hr): 378 ± 244^b | Coenzyme Q10 concentration in plasma, Mean ± SD ([3]; 220 mg/kg/week, Arm 2, n = 11 (footnote b), time 146 hr): 282 ± 207^b | Coenzyme Q10 concentration in plasma, Mean ± SD ([3]; 220 mg/kg/week, Arm 2, n = 12 (footnote a), time 1 hr): 150 ± 54^a | Coenzyme Q10 concentration in plasma, Mean ± SD ([3]; 220 mg/kg/week, Arm 2, n = 12 (footnote a), time 73 hr): 227 ± 212^a | Coenzyme Q10 concentration in plasma, Mean ± SD ([3]; 220 mg/kg/week, Arm 2, n = 12 (footnote a), time 74 hr): 226 ± 193^a | Coenzyme Q10 concentration in plasma, Mean ± SD ([3]; 220 mg/kg/week, Arm 2, n = 12 (footnote a), time 143.5 hr): 363 ± 221^a | Coenzyme Q10 concentration in plasma, Mean ± SD ([3]; 220 mg/kg/week, Arm 2, n = 13, time 0 hr): 0 | Coenzyme Q10 concentration in plasma, Mean ± SD ([3]; 220 mg/kg/week, Arm 2, n = 13, time 2 hr): 163 ± 66^ | Coenzyme Q10 concentration in plasma, Mean ± SD ([3]; 220 mg/kg/week, Arm 2, n = 13, time 24 hr): 251 ± 155 | Coenzyme Q10 concentration in plasma, Mean ± SD ([3]; 220 mg/kg/week, Arm 2, n = 13, time 71.5 hr): 255 ± 199 | Coenzyme Q10 concentration in plasma, Mean ± SD ([3]; 220 mg/kg/week, Arm 2, n = 13, time 142 hr): 358 ± 214 | Coenzyme Q10 concentration in plasma, Mean ± SD ([3]; 274 mg/kg/week, Arm 1, n = 3 (so in the source), time 0 hr): 0 | Coenzyme Q10 concentration in plasma, Mean ± SD ([3]; 274 mg/kg/week, Arm 1, n = 3 (so in the source), time 1 hr): 173 ± 36 | Coenzyme Q10 concentration in plasma, Mean ± SD ([3]; 274 mg/kg/week, Arm 1, n = 3 (so in the source), time 2 hr): 175 ± 42 | Coenzyme Q10 concentration in plasma, Mean ± SD ([3]; 274 mg/kg/week, Arm 1, n = 3 (so in the source), time 4 hr): 185 ± 51 | Coenzyme Q10 concentration in plasma, Mean ± SD ([3]; 274 mg/kg/week, Arm 1, n = 3 (so in the source), time 24 hr): 261 ± 149 | Coenzyme Q10 concentration in plasma, Mean ± SD ([3]; 274 mg/kg/week, Arm 1, n = 3 (so in the source), time 71.5 hr): 390 ± 260 | Coenzyme Q10 concentration in plasma, Mean ± SD ([3]; 274 mg/kg/week, Arm 1, n = 3 (so in the source), time 73 hr): 329 ± 260 | Coenzyme Q10 concentration in plasma, Mean ± SD ([3]; 274 mg/kg/week, Arm 1, n = 3 (so in the source), time 74 hr): 335 ± 242 | Coenzyme Q10 concentration in plasma, Mean ± SD ([3]; 274 mg/kg/week, Arm 1, n = 3 (so in the source), time 96 hr): 416 ± 291 | Coenzyme Q10 concentration in plasma, Mean ± SD ([3]; 274 mg/kg/week, Arm 1, n = 3 (so in the source), time 140 hr): 513 ± 213 | Coenzyme Q10 concentration in plasma, Mean ± SD ([3]; 274 mg/kg/week, Arm 1, n = 3 (so in the source), time 142 hr): 514 ± 260
